Reference: paper PMC6359144 (International Journal of Molecular Sciences, 2019)

Key:
[1] = test system: DLD-1 colon carcinoma cells; assay: MTT assay, DLD-1 colon carcinoma cells; type: cell-based; conditions: Homo sapiens, DLD-1, read-out: IC50 DLD-1 (72 h)
Experimental: (§1) HT-29 (ACC-299), HCT-116 (ACC-581) and DLD-1 (ACC-278) colon carcinoma, MCF-7 (ACC-115) breast carcinoma, KB-V1 (ACC-149), 518A2 (Department of Radiotherapy and Radiobiology, University Hospital Vienna) melanoma and Ea.Hy926 (ATCC no. CRL-2922) HUVEC derived endothelial hybrid cells line were grown in Dulbecco’s Modified Eagle Medium (DMEM; Biochrom), high glucose supplemented with 10% (v/v) fetal bovine serum (FBS; Biochrom.) and 1% (v/v) Antibiotic-Antimycotic solution (anti-anti; Thermo Scientific). HDFa human dermal fibroblasts (ATCC: PCS-201-012™) were grown in DMEM supplemented with 10% FBS, 1% anti-anti and 2 mM glutamine. The cells were incubated at 37 °C, 5% CO2, 95% humidified atmosphere. By repeated addition of topotecan or vinblastine at the maximum tolerated dose to the cell medium of MCF-7 and KB-V1 cells, the cells were rendered multidrug-resistant, indicated as MCF-7^Topo and KB-V1^Vbl, respectively. They were serially passaged following trypsinization by using 0.05% trypsin/0.02% EDTA (Biochrom). Mycoplasma contamination was routinely monitored, and only mycoplasma–free cultures were used.
MTT [3-(4,5-dimethylthiazol-2-yl)-2,5-diphenyltetrazolium bromide] (ABCR) was used to determine the cytotoxicity of test compounds as previously described. Briefly, HDFa human dermal fibroblasts and Ea.Hy926 endothelial hybrid cells (both 1 × 10^5 cells/mL, 100 µL/well), 518A2 melanoma, KB-V1^Vbl cervix carcinoma, MCF-7^Topo breast carcinoma, HT-29, DLD-1 and HCT-116 colon carcinoma (all 5 × 10^4 cells/mL, 100 µL/well) were grown in 96-well culture plates for 24 h. Then, various concentrations of the test compounds were added and the cells were incubated for 24-72 h at 37 °C. After adding 12.5 µL of a 0.5% MTT solution in PBS (final concentration 0.05%) to cell medium, microplates were incubated for 2 h and subsequently swiftly turned to discard the medium. The precipitate of formazan crystals was then dissolved in a 10% solution of SDS in DMSO containing 0.6% acetic acid. To ensure complete dissolution of formazan, microplates were incubated for at least 4 h at 37 °C. Finally, the absorbance at λ = 570 nm (formazan) and 630 nm (background) was measured using a microplate reader (Tecan F200). All experiments were carried out in quadruplicate and the percentage of viable cells was calculated as the mean ± SD with controls set to 100%. Selected graphs of MTT assays can be found in the Supporting Information (Figure S8).

[2] = test system: non-malignant HDFa dermal fibroblasts; assay: MTT assay, HDFa dermal fibroblasts; type: cell-based; conditions: Homo sapiens, read-out: IC50 HDFa (72 h)
Experimental: as §1
MTT [3-(4,5-dimethylthiazol-2-yl)-2,5-diphenyltetrazolium bromide] (ABCR) was used to determine the cytotoxicity of test compounds as previously described. Briefly, HDFa human dermal fibroblasts and Ea.Hy926 endothelial hybrid cells (both 1 × 10^5 cells/mL, 100 µL/well), 518A2 melanoma, KB-V1^Vbl cervix carcinoma, MCF-7^Topo breast carcinoma, HT-29, DLD-1 and HCT-116 colon carcinoma (all 5 × 10^4 cells/mL, 100 µL/well) were grown in 96-well culture plates for 24 h. Then, various concentrations of the test compounds were added and the cells were incubated for 24-72 h at 37 °C. […] Finally, the absorbance at λ = 570 nm (formazan) and 630 nm (background) was measured using a microplate reader (Tecan F200). All experiments were carried out in quadruplicate and the percentage of viable cells was calculated as the mean ± SD with controls set to 100%. […]

recombinant human HDAC6 = biological target: T1, recombinant human HDAC6 (Homo sapiens, UniProt Q9UBN7); assay: HDAC6 inhibitor screening assay (fluorometric); type: biochemical; conditions: recombinant human HDAC6, mean ± SD of two experiments; read-out: HDAC inhibition IC50, HDAC6
T1 construct: purchased Biovision
T1 sequence (Q9UBN7 1-1215): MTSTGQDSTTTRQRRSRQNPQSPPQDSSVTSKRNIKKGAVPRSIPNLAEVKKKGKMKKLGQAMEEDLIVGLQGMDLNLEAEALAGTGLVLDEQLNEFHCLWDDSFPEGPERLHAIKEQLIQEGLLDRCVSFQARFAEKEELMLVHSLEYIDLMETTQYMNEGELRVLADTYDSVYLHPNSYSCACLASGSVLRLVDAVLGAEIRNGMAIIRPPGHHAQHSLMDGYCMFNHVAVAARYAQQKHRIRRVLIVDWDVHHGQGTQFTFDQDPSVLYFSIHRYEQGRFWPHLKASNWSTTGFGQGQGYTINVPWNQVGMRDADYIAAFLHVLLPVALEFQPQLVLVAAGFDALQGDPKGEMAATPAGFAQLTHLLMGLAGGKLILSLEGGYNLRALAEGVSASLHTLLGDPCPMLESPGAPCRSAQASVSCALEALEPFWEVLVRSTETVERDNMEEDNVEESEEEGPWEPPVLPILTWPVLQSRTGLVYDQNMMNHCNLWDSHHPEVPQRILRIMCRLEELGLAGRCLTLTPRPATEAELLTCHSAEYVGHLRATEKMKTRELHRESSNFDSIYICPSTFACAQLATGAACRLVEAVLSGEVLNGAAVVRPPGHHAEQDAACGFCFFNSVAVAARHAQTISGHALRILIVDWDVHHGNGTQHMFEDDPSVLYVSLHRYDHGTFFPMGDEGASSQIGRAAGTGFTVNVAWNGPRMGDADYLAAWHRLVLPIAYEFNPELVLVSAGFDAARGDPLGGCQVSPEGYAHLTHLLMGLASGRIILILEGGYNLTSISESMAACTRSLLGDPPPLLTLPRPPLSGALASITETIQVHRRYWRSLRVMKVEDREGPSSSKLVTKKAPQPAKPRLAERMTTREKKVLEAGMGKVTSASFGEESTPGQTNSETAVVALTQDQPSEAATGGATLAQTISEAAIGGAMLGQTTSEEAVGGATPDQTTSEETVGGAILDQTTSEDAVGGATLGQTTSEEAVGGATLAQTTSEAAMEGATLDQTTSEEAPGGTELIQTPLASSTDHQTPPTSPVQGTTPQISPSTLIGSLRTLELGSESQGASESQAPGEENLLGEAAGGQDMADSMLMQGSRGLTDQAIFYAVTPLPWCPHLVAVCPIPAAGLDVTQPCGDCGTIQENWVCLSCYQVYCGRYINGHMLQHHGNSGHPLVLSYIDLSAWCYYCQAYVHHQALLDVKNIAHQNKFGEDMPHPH
Experimental: The HDAC inhibitory potential of the novel compounds was determined by utilizing the deacetylase activity of recombinant human HDAC1 (HDAC1 Inhibitor Screening Assay Kit; Cayman Chemicals) or HDAC6 (HDAC6 Inhibitor Screening Kit (Fluorometric); Biovision) towards the corresponding synthetic acetylated-peptide substrates resulting in the release of a fluorescent product. The assays were performed according to manufacturer’s description of the in commercially available assay kits. […] The IC50 values were derived from dose-response curves and are expressed as the means ± SD of two independent experiments.

Row | SMILES | IC50 [1] [µM] | IC50 [2] [µM] | IC50 (recombinant human HDAC6) [µM]
1 | COc1ccc(-c2ocnc2-c2cc(Br)c(OC)c(OC)c2)cc1OCCCCC(=O)NO [4e, N-Hydroxy-5-[1-methoxy-4-(4’-(3’’-bromo-4’’,5’’-dimethoxyphenyl)oxazol-5’-yl)-2-phenoxy]pentanamide] | 2.1 ± 0.4 | > 100 | 3.5 ± 0.1
2 | COc1ccc(-c2ocnc2-c2cc(Br)c(OC)c(OC)c2)cc1OCCCC(=O)NO [4d, N-Hydroxy-4-[1-methoxy-4-(4’-(3’’-bromo-4’’,5’’-dimethoxyphenyl)oxazol-5’-yl)-2-phenoxy]butanamide] | 0.29 ± 0.02 | 23.9 ± 1.6 | 13.8 ± 0.2
3 | COc1ccc(-c2ocnc2-c2cc(Br)c(OC)c(OC)c2)cc1OCCCCCC(=O)NO [4f, N-Hydroxy-6-[1-methoxy-4-(4’-(3’’-bromo-4’’,5’’-dimethoxyphenyl)oxazol-5’-yl)-2-phenoxy]hexanamide] | 4.1 ± 0.3 | > 50 | 0.32 ± 0.02
